The target in one data set is T1, Progesterone receptor (Bos taurus, UniProt Q690N0).
T1 sequence (Q690N0 whole entry): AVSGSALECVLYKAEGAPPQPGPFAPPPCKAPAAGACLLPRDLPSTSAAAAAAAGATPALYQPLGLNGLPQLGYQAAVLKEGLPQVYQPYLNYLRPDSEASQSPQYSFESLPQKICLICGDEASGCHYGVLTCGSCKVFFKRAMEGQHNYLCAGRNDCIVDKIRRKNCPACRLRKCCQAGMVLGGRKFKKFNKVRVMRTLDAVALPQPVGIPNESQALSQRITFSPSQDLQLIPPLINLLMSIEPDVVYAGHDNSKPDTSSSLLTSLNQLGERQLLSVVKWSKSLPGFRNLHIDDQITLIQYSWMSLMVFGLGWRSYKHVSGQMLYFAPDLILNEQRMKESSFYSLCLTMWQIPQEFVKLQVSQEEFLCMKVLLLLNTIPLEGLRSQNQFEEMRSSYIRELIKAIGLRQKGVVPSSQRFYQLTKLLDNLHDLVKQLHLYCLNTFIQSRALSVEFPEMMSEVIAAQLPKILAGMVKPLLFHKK
Briefly: DRUGMATRIX: Progesterone radioligand binding (ligand: [3H] R-5020). The class given is tissue-based, Uterus. The note with it: Not Active = under 50% inhibition at 10 µM.

The next data set has as its target Nitric oxide synthase 1 (Rattus norvegicus, UniProt P29476). The data set is classed as tissue-based, Cerebellum. Note: in other assays of this panel Not Active means under 50% inhibition at 10 µM.
The target in a further data set is T2, Androgen receptor (Rattus norvegicus, UniProt P15207). Note: in other assays of this panel Not Active means under 50% inhibition at 10 µM.
T2 sequence (P15207 whole entry): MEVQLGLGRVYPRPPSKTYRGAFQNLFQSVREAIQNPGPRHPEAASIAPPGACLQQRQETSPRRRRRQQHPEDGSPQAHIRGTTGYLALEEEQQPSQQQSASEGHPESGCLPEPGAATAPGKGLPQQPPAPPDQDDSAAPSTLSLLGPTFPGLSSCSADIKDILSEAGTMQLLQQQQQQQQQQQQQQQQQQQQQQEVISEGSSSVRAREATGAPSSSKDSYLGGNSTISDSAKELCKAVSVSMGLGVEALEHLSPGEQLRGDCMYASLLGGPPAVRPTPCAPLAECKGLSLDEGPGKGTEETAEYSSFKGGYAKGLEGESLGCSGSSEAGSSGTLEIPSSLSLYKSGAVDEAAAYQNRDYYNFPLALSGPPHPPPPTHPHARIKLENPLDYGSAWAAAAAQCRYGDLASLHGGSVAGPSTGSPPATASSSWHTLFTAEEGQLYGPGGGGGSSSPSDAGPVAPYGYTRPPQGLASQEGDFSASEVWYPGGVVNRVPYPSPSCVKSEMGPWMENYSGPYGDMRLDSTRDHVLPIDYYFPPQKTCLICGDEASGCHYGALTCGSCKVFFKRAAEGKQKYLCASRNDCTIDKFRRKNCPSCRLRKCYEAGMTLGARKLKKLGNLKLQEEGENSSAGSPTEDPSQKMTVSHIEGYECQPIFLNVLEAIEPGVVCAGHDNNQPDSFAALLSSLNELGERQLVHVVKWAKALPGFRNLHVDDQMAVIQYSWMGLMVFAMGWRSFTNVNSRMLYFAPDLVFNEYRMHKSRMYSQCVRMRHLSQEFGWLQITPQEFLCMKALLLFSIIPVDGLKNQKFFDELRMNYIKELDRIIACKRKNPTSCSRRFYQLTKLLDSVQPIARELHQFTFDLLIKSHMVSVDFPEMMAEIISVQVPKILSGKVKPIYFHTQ

Another data set concerns the target T3, B2 bradykinin receptor (Homo sapiens, UniProt P30411). Note: in other assays of this panel Not Active means under 50% inhibition at 10 µM.
T3 sequence (P30411 whole entry): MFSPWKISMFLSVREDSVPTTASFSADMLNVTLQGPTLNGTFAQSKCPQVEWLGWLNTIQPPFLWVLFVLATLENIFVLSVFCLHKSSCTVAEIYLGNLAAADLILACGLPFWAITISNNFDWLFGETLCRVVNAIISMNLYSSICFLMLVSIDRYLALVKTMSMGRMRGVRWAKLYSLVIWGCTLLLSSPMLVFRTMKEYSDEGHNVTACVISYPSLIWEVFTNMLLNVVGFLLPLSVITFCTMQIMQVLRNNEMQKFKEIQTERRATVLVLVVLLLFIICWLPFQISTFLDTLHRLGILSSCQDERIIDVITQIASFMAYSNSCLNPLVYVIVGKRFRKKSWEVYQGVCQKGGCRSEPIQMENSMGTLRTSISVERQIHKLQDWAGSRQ
The data set is classed as cell membranes, Membrane. The conditions noted are these: chem-1.

Data set [1] addresses T4, Cholecystokinin receptor type A (Homo sapiens, UniProt P32238).
T4 sequence (P32238 whole entry): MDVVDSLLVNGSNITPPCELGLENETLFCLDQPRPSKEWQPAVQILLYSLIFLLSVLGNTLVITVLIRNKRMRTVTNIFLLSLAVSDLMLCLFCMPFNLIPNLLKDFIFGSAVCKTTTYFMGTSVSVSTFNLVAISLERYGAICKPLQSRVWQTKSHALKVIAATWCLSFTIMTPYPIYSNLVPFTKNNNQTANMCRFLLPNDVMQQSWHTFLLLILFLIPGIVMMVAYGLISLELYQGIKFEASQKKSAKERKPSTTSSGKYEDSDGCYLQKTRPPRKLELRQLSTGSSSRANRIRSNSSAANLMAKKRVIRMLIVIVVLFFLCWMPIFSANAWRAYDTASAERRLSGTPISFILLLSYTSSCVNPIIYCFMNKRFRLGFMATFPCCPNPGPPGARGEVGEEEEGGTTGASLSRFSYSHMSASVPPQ
The class given is cell membranes, Membrane. The conditions noted are these: 1321-n1.

A further data set addresses T5, Cytochrome P450 2A6 (Homo sapiens, UniProt P11509).
T5 sequence (P11509 whole entry): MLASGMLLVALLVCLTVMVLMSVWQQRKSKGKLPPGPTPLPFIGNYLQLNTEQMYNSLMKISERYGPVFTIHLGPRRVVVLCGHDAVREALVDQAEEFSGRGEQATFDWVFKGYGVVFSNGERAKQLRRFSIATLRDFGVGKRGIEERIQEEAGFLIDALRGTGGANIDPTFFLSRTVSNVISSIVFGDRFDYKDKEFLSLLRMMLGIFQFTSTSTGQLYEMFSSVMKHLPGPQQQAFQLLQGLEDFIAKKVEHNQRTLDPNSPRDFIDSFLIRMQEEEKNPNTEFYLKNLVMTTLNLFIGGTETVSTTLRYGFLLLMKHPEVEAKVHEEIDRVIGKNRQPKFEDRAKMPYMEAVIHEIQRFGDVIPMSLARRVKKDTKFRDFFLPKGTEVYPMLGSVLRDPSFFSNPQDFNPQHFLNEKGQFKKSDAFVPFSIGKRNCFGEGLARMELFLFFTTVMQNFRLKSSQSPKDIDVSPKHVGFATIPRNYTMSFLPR
The conditions noted are these: bti-tn-5b1-4.

The nature of data set [2]: DRUGMATRIX: GABAA, Chloride Channel, TBOB radioligand binding (ligand: [3H] TBOB). The class given is cell membranes, Rattus norvegicus, Wistar, Cerebral cortex, Membrane. The conditions noted are these: Not Active = under 50% inhibition at 10 µM.
Data set [3] addresses Mitogen-activated protein kinase 3 (Homo sapiens, UniProt P27361). Briefly: DRUGMATRIX: Protein Serine/Threonine Kinase, ERK1 enzyme inhibition (substrate: Myelin Basic Protein). More on the design: species or system Escherichia coli. The conditions noted are these: Not Active = under 50% inhibition at 10 µM.

Chain of Mitogen-activated protein kinase 3 (P27361 whole entry): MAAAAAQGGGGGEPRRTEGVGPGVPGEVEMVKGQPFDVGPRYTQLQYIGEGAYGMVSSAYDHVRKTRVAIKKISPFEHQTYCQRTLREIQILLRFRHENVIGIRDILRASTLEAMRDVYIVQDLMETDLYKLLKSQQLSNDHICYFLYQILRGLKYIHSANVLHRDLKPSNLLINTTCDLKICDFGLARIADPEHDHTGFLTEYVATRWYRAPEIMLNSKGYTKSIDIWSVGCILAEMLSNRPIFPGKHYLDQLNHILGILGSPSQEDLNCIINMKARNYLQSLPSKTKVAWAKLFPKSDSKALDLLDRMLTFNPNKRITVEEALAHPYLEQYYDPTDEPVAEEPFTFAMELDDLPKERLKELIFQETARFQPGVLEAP
Chain of Nitric oxide synthase 1 (P29476 whole entry): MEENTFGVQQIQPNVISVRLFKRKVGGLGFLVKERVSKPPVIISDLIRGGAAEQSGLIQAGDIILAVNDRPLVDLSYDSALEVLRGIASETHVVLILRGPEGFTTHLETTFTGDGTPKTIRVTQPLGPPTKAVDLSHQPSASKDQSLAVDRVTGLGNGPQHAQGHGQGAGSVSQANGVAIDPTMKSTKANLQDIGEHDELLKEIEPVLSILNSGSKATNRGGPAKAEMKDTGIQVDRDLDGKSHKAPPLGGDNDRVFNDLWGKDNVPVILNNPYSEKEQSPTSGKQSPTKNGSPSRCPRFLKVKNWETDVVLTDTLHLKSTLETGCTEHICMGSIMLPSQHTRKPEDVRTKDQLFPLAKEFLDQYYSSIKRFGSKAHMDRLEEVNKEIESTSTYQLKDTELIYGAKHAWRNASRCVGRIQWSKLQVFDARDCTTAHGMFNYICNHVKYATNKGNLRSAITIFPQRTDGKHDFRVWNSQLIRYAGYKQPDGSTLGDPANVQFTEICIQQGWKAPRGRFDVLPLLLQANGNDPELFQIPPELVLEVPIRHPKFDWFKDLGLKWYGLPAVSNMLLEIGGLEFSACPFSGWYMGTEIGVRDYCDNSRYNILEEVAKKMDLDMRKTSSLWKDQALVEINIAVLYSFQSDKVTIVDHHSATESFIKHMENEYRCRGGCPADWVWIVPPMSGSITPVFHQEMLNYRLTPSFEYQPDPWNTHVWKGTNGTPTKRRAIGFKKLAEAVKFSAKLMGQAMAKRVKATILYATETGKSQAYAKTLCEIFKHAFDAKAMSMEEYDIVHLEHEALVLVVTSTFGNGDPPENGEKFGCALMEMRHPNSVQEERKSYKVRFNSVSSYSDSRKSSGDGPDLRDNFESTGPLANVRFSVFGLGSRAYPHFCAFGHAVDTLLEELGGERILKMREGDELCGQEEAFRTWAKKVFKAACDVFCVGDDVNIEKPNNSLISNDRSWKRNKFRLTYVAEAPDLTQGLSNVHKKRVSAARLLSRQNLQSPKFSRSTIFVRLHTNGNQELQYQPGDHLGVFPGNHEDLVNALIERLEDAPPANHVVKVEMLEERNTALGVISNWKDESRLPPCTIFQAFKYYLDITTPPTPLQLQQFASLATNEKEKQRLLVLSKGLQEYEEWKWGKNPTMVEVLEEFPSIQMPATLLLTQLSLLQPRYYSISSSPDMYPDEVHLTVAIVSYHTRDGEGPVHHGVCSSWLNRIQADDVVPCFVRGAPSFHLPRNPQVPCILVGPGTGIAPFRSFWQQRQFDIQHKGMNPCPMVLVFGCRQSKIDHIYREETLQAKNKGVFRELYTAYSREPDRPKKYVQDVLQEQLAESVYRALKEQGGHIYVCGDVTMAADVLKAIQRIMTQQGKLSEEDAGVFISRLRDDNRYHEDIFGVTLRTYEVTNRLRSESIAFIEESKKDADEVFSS

In general, IC50 refers to the concentration that inhibits the measured activity by half. In general, Ki refers to a measure of affinity in units of concentration, obtained from inhibition or displacement. With `CN(C)[C@@H]1C(O)=C(C(N)=O)C(=O)[C@@]2(O)C(O)=C3C(=O)c4c(O)cccc4[C@@](C)(O)[C@H]3[C@H](O)[C@@H]12` [OXYTETRACYCLINE], the concentration for half-maximal inhibition (IC50) entry (on Progesterone receptor; against Nitric oxide synthase 1; against Androgen receptor; against B2 bradykinin receptor; in data set [1]; at Cytochrome P450 2A6) was “Not Active” throughout. Also, the IC50 result in data set [2] and in data set [3] was “Not Active” in each case. Moreover, the Ki entry (at Cytochrome P450 2A6; in data set [2]) was “Not Active” throughout.

Turning to `Fc1ccc([C@@H]2CCNC[C@H]2COc2ccc3c(c2)OCO3)cc1` [PAROXETINE], the concentration for half-maximal inhibition (IC50) result (on Progesterone receptor; at Nitric oxide synthase 1; against Androgen receptor; on B2 bradykinin receptor; in data set [1]; against Cytochrome P450 2A6) was “Not Active” in each case. Further, the IC50 result in data set [2] and in data set [3] was “Not Active” in each case. The Ki entry (at Cytochrome P450 2A6; in data set [2]) was “Not Active” each time.

For `C=C(C)[C@@H]1[C@H]2OC(=O)[C@@H]1[C@]1(O)C[C@H]3O[C@]34C(=O)O[C@H]2[C@]14C` [PICROTOXININ], the half-maximal inhibitory concentration (IC50) entry (on Progesterone receptor; against Nitric oxide synthase 1; at Androgen receptor; at B2 bradykinin receptor; in data set [1]; against Cytochrome P450 2A6) was “Not Active” in each case. Also, the half-inhibitory concentration (IC50) was 368 nM in data set [2] (read-out: IC50) and “Not Active” in data set [3]. For the same compound, the Ki result was “Not Active” at Cytochrome P450 2A6 and 330 nM in data set [2] (read-out: Ki).

For the compound CARBOPLATIN, the IC50 result (at Progesterone receptor; at Nitric oxide synthase 1; against Androgen receptor; against B2 bradykinin receptor; in data set [1]; against Cytochrome P450 2A6) was “Not Active” throughout. Further, the 50% inhibitory concentration (IC50) result in data set [2] and in data set [3] was “Not Active” throughout. Moreover, the Ki result (at Progesterone receptor; on Nitric oxide synthase 1; on Androgen receptor; on B2 bradykinin receptor; in data set [1]; on Cytochrome P450 2A6) was “Not Active” in each case. In addition, the Ki result in data set [2] and in data set [3] was “Not Active” in each case.

For the compound CISPLATIN, the half-maximal inhibitory concentration (IC50) result (at Progesterone receptor; at Nitric oxide synthase 1; on Androgen receptor; on B2 bradykinin receptor; in data set [1]; at Cytochrome P450 2A6) was “Not Active” each time. For the same compound, the 50% inhibitory concentration (IC50) result in data set [2] is “Not Active”; in data set [3] (read-out: IC50) it was 4620 nM. Further, the Ki entry (at Progesterone receptor; on Nitric oxide synthase 1; at Androgen receptor; on B2 bradykinin receptor; in data set [1]; at Cytochrome P450 2A6) was “Not Active” throughout. Further, the inhibition constant Ki entry in data set [2] is reported as “Not Active”.

On to GOLD SODIUM THIOMALATE, for which the IC50 result (on Progesterone receptor; on Nitric oxide synthase 1; against Androgen receptor; on B2 bradykinin receptor; in data set [1]; on Cytochrome P450 2A6) was “Not Active” each time. Also, the IC50 result in data set [2] and in data set [3] was “Not Active” in each case. Moreover, the Ki entry (at Progesterone receptor; at Nitric oxide synthase 1; on Androgen receptor; on B2 bradykinin receptor; in data set [1]; on Cytochrome P450 2A6) was “Not Active” throughout. For the same compound, the inhibitory constant (Ki) entry in data set [2] and in data set [3] was “Not Active” throughout.

With OXALIPLATIN, the concentration for half-maximal inhibition (IC50) result (at Progesterone receptor; on Nitric oxide synthase 1; at Androgen receptor; at B2 bradykinin receptor; in data set [1]; against Cytochrome P450 2A6) was “Not Active” in each case. The IC50 entry in data set [2] and in data set [3] was “Not Active” throughout. The Ki entry (on Progesterone receptor; at Nitric oxide synthase 1; at Androgen receptor; at B2 bradykinin receptor; in data set [1]; on Cytochrome P450 2A6) was “Not Active” each time. For the same compound, the inhibition constant (Ki) result in data set [2] and in data set [3] was “Not Active” throughout.

Values taken from ChEMBL document CHEMBL1909046, “DrugMatrix in vitro pharmacology data”.
